Assays:
[1] = target: T1, α2AAR (α2A-adrenergic receptor) (Homo sapiens, UniProt P08913); experiment: α2AAR FLIPR assay (agonist activity); format: cell-based; conditions: FLIPR, α2AAR cell line hosted in HEK293 cells; read-out: α2A agonist activity (EC50)
T1 construct: expressed in transfected cells; host or cells: HEK293
T1 sequence (P08913 1-465): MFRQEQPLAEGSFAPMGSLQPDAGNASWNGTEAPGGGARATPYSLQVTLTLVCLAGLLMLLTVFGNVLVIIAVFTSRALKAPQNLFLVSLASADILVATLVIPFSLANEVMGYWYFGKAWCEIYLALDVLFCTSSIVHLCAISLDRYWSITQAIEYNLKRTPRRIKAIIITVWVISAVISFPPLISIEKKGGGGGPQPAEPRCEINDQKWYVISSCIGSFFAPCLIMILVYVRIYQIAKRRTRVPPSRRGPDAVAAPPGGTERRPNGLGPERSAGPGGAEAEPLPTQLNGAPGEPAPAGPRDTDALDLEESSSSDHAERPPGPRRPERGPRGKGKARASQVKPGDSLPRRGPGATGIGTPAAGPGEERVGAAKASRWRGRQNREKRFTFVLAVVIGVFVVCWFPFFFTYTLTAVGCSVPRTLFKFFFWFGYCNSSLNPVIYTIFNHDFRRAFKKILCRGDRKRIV
Protocol: This experimental protocol involved cell seeding and a FLIPR assay using the α2AAR (α2A-adrenergic receptor) cell line hosted in HEK293 cells. […] On Day 1, the cell seeding process started with the removal of the culture medium, followed by rinsing the cells with DPBS (21-031-CVC, Corning). […] The cells were detached, resuspended in growth media, and centrifuged at room temperature at 1000 rpm for 5 minutes. After discarding the supernatant, the cell pellet was resuspended in growth media to a concentration of 10× 10^5 cells per mL. This suspension was added to 384-well plates (19-Jul-38, Greiner) at 20 μL per well and incubated overnight at 37° C. in 5% CO2.
A 250 mM Probenecid solution was prepared in this buffer. The Fluo-4 Direct™ Loading Buffer was made by dissolving Fluo-4 Direct™ crystals (F10471, Invitrogen) in the FLIPR Assay Buffer and adding Probenecid. The buffer was then vortexed and allowed to stand for over 5 minutes, shielded from light. For the FLIPR procedure, testing compounds for agonist activite were serially diluted and transferred to a 384-well compound plate (25-Jan-39, Greiner). The cell plate was then treated with 2× Fluo-4 Direct™ loading buffer and incubated for 50 minutes at 37° C. in a 5% CO2 atmosphere, followed by 10 minutes at room temperature. Subsequently, the FLIPR assay buffer was added to the compound plate, which is then centrifuged.
The cell plate was analyzed in the FLIPR Tetra+ System for fluorescence signals. For the agonist test, reference compounds were added to the cell plates, and fluorescence was measured. The “Max-Min” calculation began from Read 1 to the maximum allowed. The data were analyzed using Prism software to calculate activation percentage for agonists and inhibition percentage for antagonists. The results were then fitted using specific models to determine EC50 for agonists.
The experimental protocol utilized various reagents and apparatus, including Penicillin/Streptomycin (100×) (SV30010, Hyclone), Poly-L-lysine hydrobromide (P1399, Sigma), and different types of 384-well plates such as the 384-Well PP 2.0 Microplate (PP-0200, LABCYTE) and 384 well Low Dead Volume Microplate (LP-0200, LABCYTE). The use of specific reference compounds like UK14304 was also integral to the assay.

[2] = target: T2, α2AAR (Homo sapiens, UniProt P08913); experiment: α2AAR binding assay ([3H]-RX 821002 radioligand); conditions: [3H]-RX 821002 0.5 nM, HEK293 membranes; read-out: α2A affinity (Ki)
T2 construct: host or cells: HEK293 (membranes)
T2 sequence (P08913 1-465): T1 sequence (P08913 1-465)
Protocol: The α2AR Binding Assay was conducted using a stable HEK293 cell line, specifically constructed by WuXi AppTec for targeting α2AAR. […] Both the assay and wash buffers consist of 50 mM Tris-HCl at a pH of 7.4 (Tris base, Sigma, T1503-1 KG).
The procedure initiated with the preparation of test compounds and a reference compound, yohimbine (Sigma, Y3125), through an 8-point 4-fold serial dilution, transferring 1 μL of each to the assay plate. […] After scaling, the plates were agitated at room temperature for one hour. Subsequently, the Unifilter-96 GF/C filter plates were pre-soaked with 0.3% PEI (Sigma, P3143) for at least half an hour. The reaction mixtures were then filtered and washed four times with cold wash buffer using a Perkin Elmer Cell harvester. Post-filtration, the plates were dried at 50° C. for one hour. […] The top of the plates was then sealed with TopSeal-A sealing film. The trapped 3H was quantified using a Perkin Elmer MicroBeta2 Reader. […] Finally, the data were analyzed with Prism 5.0 software, employing the “log (inhibitor) vs. response-Variable slope” model for data fitting. This comprehensive process ensured precise assessment of the binding affinity of compounds to the α2AAR.

SMILES | EC50 [1] [µM] | Ki [2] [µM]
Cc1cccc(C(c2cccc(C(=O)NC3CCOCC3)c2)c2c[nH]cn2)c1C (racemic) [compound 121] | < 0.01 | 0.01 to 0.05
Cc1cccc(C(Cc2ccc(NS(C)(=O)=O)cc2)c2c[nH]cn2)c1C (racemic) [compound 136] | < 0.01 | < 0.01
Cc1cccc(C(Cc2ccc(C(N)=O)c(F)c2)c2c[nH]cn2)c1C (racemic) [compound 156] | < 0.01 | < 0.01
Cc1cccc(C(c2cccc(NC(=O)CC#N)c2)c2c[nH]cn2)c1C (single isomer, unassigned) [10-B] | 0.01 to 0.05 | 0.01 to 0.05
CNC(=O)NCCOCCOCC(c1c[nH]cn1)c1cccc(C)c1C (single isomer, unassigned) [17-B] | 0.01 to 0.05 | 0.01 to 0.05
Cc1cccc(C(c2cccc(NC(=O)CCC#N)c2)c2c[nH]cn2)c1C (single isomer, unassigned) [43-B] | 0.01 to 0.05 | 0.01 to 0.05
Cc1cccc(C(c2cccc(NS(C)(=O)=O)c2)c2c[nH]cn2)c1C (single isomer, unassigned) [44-B] | 0.01 to 0.05 | < 0.01
Cc1cccc(C(c2cccc(C(=O)NCC3CCOCC3)c2)c2c[nH]cn2)c1C (single isomer, unassigned) [98-B] | < 0.01 | < 0.01
Cc1cccc(C(Cc2cccc(NS(=O)(=O)CC3CCOCC3)c2)c2c[nH]cn2)c1C (single isomer, unassigned) [112-B] | 0.01 to 0.05 | < 0.01
Cc1cccc(C(Cc2ccc(C(C)C(=O)O)cc2)c2c[nH]cn2)c1C (single isomer, unassigned) [174-B] | 0.01 to 0.05 | 0.01 to 0.05
Cc1cccc(C(Cc2ccc(C(C)C(=O)O)cc2)c2c[nH]cn2)c1C (single isomer, unassigned) [174-D] | 0.01 to 0.05 | 0.01 to 0.05
Cc1cccc(C(Cc2ccc(C(=O)O)cc2)c2c[nH]cn2)c1C (single isomer, unassigned) [175-B] | 0.01 to 0.05 | 0.05 to 0.25
CONC(=O)c1cccc(C(c2c[nH]cn2)c2cccc(C)c2C)c1 (stereo not drawn) [compound 1] | 0.05 to 0.25 | 0.05 to 0.25
Cc1cccc(C(COCCOCCNC(=O)Nc2ccncn2)c2c[nH]cn2)c1C (stereo not drawn) [compound 20] | 0.01 to 0.05 | 0.05 to 0.25
Cc1cccc(C(c2cccc(OCCNS(C)(=O)=O)c2)c2c[nH]cn2)c1C (stereo not drawn) [compound 22] | 0.01 to 0.05 | 0.01 to 0.05
Cc1cccc(C(COCCOCCOCCNS(C)(=O)=O)c2c[nH]cn2)c1C (stereo not drawn) [compound 26] | 0.01 to 0.05 | 0.05 to 0.25
Cc1cccc(C(c2c[nH]cn2)c2cccc(C(N)=O)c2F)c1C (stereo not drawn) [compound 27] | 0.01 to 0.05 | < 0.01
CNS(=O)(=O)c1cccc(C(c2c[nH]cn2)c2cccc(C)c2C)c1 (stereo not drawn) [compound 28] | 0.01 to 0.05 | 0.01 to 0.05
Cc1cccc(C(c2cccc(NS(C)(=O)=O)c2)c2c[nH]cn2)c1C (stereo not drawn) [compound 29] | 0.01 to 0.05 | < 0.01
CC(=O)Nc1cccc(C(c2c[nH]cn2)c2cccc(C)c2C)c1 (stereo not drawn) [compound 30] | 0.05 to 0.25 | 0.05 to 0.25
Cc1cccc(C(c2ccnc(C(N)=O)c2)c2c[nH]cn2)c1C (stereo not drawn) [compound 31] | 0.01 to 0.05 | 0.05 to 0.25
Cc1cccc(C(c2cccc(NCCC#N)c2)c2c[nH]cn2)c1C (stereo not drawn) [compound 32] | 0.05 to 0.25 | 0.05 to 0.25

SMILES | EC50 [1] [µM] | Ki [2] [µM]
Cc1cccc(C(c2c[nH]cn2)c2cccc(C(N)=O)c2Cl)c1C (stereo not drawn) [compound 38] | 0.01 to 0.05 | 
Cc1cccc(C(c2cccc(N)c2)c2c[nH]cn2)c1C (stereo not drawn) [compound 39] | 0.05 to 0.25 | 
Cc1cccc(C(c2cccc(NC(=O)CCC#N)c2)c2c[nH]cn2)c1C (stereo not drawn) [compound 43] | 0.01 to 0.05 | 0.01 to 0.05
CC(=O)Nc1cccc(C(c2c[nH]cn2)c2cccc(C)c2C)c1F (stereo not drawn) [compound 50] | 0.05 to 0.25 | 0.05 to 0.25
Cc1cccc(C(c2c[nH]cn2)c2cccc(NS(C)(=O)=O)c2F)c1C (stereo not drawn) [compound 51] | 0.05 to 0.25 | 0.01 to 0.05
CONC(=O)c1cccc(C(c2c[nH]cn2)c2cccc(C(F)(F)F)c2C)c1 (stereo not drawn) [compound 52] | 0.25 to 1 | 
CONC(=O)c1cccc(C(c2c[nH]cn2)c2cccc(C)c2C)c1F (stereo not drawn) [compound 54] | 0.01 to 0.05 | 0.01 to 0.05
Cc1cccc(C(c2cccc(Nc3ccccn3)c2)c2c[nH]cn2)c1C (stereo not drawn) [compound 59] | 0.05 to 0.25 | 
CONC(=O)c1cccc(CC(c2c[nH]cn2)c2cccc(C)c2C)c1 (stereo not drawn) [compound 61] | 0.01 to 0.05 | 0.01 to 0.05
CSCCC(=O)Nc1cccc(C(c2c[nH]cn2)c2cccc(C)c2C)c1 (stereo not drawn) [compound 63] | 0.01 to 0.05 | 0.01 to 0.05
Cc1cccc(C(c2cccc(NC(=O)CCN3CCOCC3)c2)c2c[nH]cn2)c1C (stereo not drawn) [compound 70] | 0.01 to 0.05 | 0.01 to 0.05
Cc1cccc(C(c2c[nH]cn2)c2cccc(S(N)(=O)=O)c2O)c1C (stereo not drawn) [compound 150] | 0.05 to 0.25 | 
Cc1cccc(C(CN2CCC(NS(C)(=O)=O)CC2)c2c[nH]cn2)c1C (stereo not drawn) [compound 168] | 0.05 to 0.25 | 
Cc1cccc(C(c2cccc(NC(=O)C3C4CC5CC(C4)CC3C5)c2)c2c[nH]cn2)c1C (stereo not drawn) [compound 170] | 0.05 to 0.25 | 
Cc1cccc(C(c2cccc(NS(=O)(=O)C[C@@H]3CCCO3)c2)c2c[nH]cn2)c1C (stereo partly drawn) [compound 172] | 0.01 to 0.05 | 
Cc1cccc(C(c2cccc(NS(=O)(=O)CC3CCCCO3)c2)c2c[nH]cn2)c1C (stereo not drawn) [compound 173] | 0.01 to 0.05 | 
Cc1cccc(C(c2cccc(NC(=O)CC3CCCCC3)c2)c2c[nH]cn2)c1C (stereo not drawn) [compound 178] | 0.01 to 0.05 | 
Cc1cccc(C(c2cccc(NC3(C)COC3)c2)c2c[nH]cn2)c1C (stereo not drawn) [compound 185] | 0.05 to 0.25 | 
Cc1cscc1C(c1cccc(NS(C)(=O)=O)c1)c1c[nH]cn1 (stereo not drawn) [compound 403] | 0.05 to 0.25 | 
CONC(=O)c1ccc2ccccc2c1Nc1ccncc1 [compound 601] | 0.05 to 0.25 | 
COCCOCCOCCOCCOCCc1ccc2ccccc2c1Nc1ccncc1 [compound 602] | 0.05 to 0.25 | 

— patent publication US20240374573A1, “IMIDAZOLE CONTAINING COMPOUNDS, DERIVATIVES THEREFORE, AND USES THEREOF” (AglaeaPharma Inc., priority 2023, published 2024)
